Test results taken from US11034672B1, “Tyrosine kinase inhibitor compositions, methods of making and methods of use” (Black Diamond Therapeutics, Inc., priority 2018, dated 2021).

Tests used:
Assay type in all cases: cell-based
HER2 S310F [1] = molecular target: T1, HER2 S310F (Homo sapiens, UniProt P04626, S310F); test: Activity for inhibiting HER2 (Table B), HER2 S310F; conditions: read-out: HER2 S310F, potency code (IC50)
T1 construct: expressed in transfected cells; host or cells: BaF3 (murine pro-B)
Experimental: (§1) EC50 values were determined with the same application.

HER2 YVMA [2] = molecular target: T2, HER2 YVMA (Homo sapiens, UniProt P04626, INS775YVMA); test: Activity for inhibiting HER2 (Table B), HER2 YVMA; conditions: read-out: HER2 YVMA, potency code (IC50)
T2 construct: expressed in transfected cells; host or cells: BaF3 (murine pro-B)
Experimental: as §1

EGFR V3 [3] = molecular target: T3, EGFR V3 (Homo sapiens, UniProt P00533, DELINS30-297G); test: BaF3 cell proliferation assay, EGFR V3 (Table A); conditions: potency code, 3 days, CellTiterGlo, read-out: EGFR V3 (Activity for Inhibiting EGFR)
T3 construct: expressed in transfected cells; host or cells: BaF3 (murine pro-B), retroviral pMXs-IRES-Blasticidin
Summary of the method: (§2)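 Steps: HEK 293T transfected with pMXs-IRES-Blasticidin kinase vector plus Gag-Pol and VSV-G; virus harvested at 24 and 48 hrs; BaF3 infected twice by centrifugation, Blasticidin-selected, then grown without IL-3. Proliferation EC50 measured.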

HER2 S310F [4] = molecular target: T1, HER2 S310F; test: BaF3 cell proliferation assay, HER2 S310F (Table B); conditions: potency code, 3 days, CellTiterGlo, read-out: HER2 S310F (Activity for Inhibiting HER2)
HER2 WT [5] = molecular target: T4, HER2 WT (Homo sapiens, UniProt P04626); test: Activity for inhibiting HER2 (Table B), HER2 WT
EGFR SVD [6] = molecular target: T5, EGFR SVD (Homo sapiens, UniProt P00533, DUP768-770); test: BaF3 cell proliferation assay, EGFR SVD (Table A); conditions: potency code, 3 days, CellTiterGlo, read-out: EGFR SVD (Activity for Inhibiting EGFR)
T5 construct: expressed in transfected cells; host or cells: BaF3 (murine pro-B), retroviral pMXs-IRES-Blasticidin
Experimental: (§3) Retroviral Production: EGFR mutants were subcloned into pMXs-IRES-Blasticidin (RTV-016, Cell Biolabs, San Diego, Calif.). Retroviral expression vector retrovirus was produced by transient transfection of HEK 293T cells with the retroviral EGFR mutant expression vector pMXs-IRES-Blasticidin (RTV-016, Cell Biolabs), pCMV-Gag-Pol vector and pCMV-VSV-G-Envelope vector. Briefly, HEK 293T/17 cells were plated in 100 mm collagen coated plate (354450, Corning Life Sciences, Tewksbury, Mass.) (4×10^5 per plate) and incubated overnight. The next day, retroviral plasmids (3 μg of EGFR mutant, 1.0 μg of pCMV-Gag-Pol and 0.5 μg pCMV-VSV-G) were mixed in 500 μl of Optimem (31985, Life Technologies). The mixture was incubated at room temperature for 5 min and then added to Optimem containing transfection reagent Lipofectamine (11668, Invitrogen) and incubated for 20 minutes. Mixture was then added dropwise to HEK 293T cells. The next day the medium was replaced with fresh culture medium and retrovirus was harvested @ 24 and 48 hrs.
(§4) Generation of EGFR mutant stable cell lines: BaF3 cells (1.5E5 cells) were infected with 1 ml of viral supernatant supplemented with 8 μg/ml polybrene by centrifuging for 30 min at 1000 rpm. Cells were placed in a 37° C. incubator overnight. Cells were then spun for 5 minutes to pellet the cells. Supernatant was removed and cells re-infected a fresh 1 ml of viral supernatant supplemented with 8 μg/ml polybrene by centrifuging for 30 min at 1000 rpm. Cells were placed in 37° C. incubator overnight. […] After 48 hours cells were selected for retroviral infection in 10 μg/ml Blasticidin for one week. Blasticidin resistant populations were washed twice in phosphate buffered saline before plating in media lacking IL-3 to select for IL-3 independent growth.
as §1

EGFR WT [7] = molecular target: T6, EGFR WT (Homo sapiens, UniProt P00533); test: Activity for inhibiting EGFR (Table A), EGFR WT; conditions: read-out: EGFR WT, potency code (IC50)
EGFR SVD [8] = molecular target: T5, EGFR SVD; test: Activity for inhibiting EGFR (Table A), EGFR SVD; conditions: read-out: EGFR SVD, potency code (IC50)
HER2 WT [9] = molecular target: T4, HER2 WT; test: BaF3 cell proliferation assay, HER2 WT (Table B); conditions: potency code, 3 days, CellTiterGlo, read-out: HER2 WT (Activity for Inhibiting HER2)
EGFR NPH [10] = molecular target: T7, EGFR NPH (Homo sapiens, UniProt P00533, DUP771-773); test: BaF3 cell proliferation assay, EGFR NPH (Table A); conditions: potency code, 3 days, CellTiterGlo, read-out: EGFR NPH (Activity for Inhibiting EGFR)
T7 construct: expressed in transfected cells; host or cells: BaF3 (murine pro-B), retroviral pMXs-IRES-Blasticidin
Experimental: as §3, §4, §1

HER2 YVMA [11] = molecular target: T2, HER2 YVMA; test: BaF3 cell proliferation assay, HER2 YVMA (Table B); conditions: potency code, 3 days, CellTiterGlo, read-out: HER2 YVMA (Activity for Inhibiting HER2)
EGFR V3 [12] = molecular target: T3, EGFR V3; test: Activity for inhibiting EGFR (Table A), EGFR V3 (EGFR-Viii); conditions: read-out: EGFR V3, potency code (IC50)
EGFR WT [13] = molecular target: T6, EGFR WT; test: BaF3 cell proliferation assay, EGFR WT (Table A); conditions: potency code, 3 days, CellTiterGlo, read-out: EGFR WT (Activity for Inhibiting EGFR)
Summary of the method: as §2

EGFR NPH [14] = molecular target: T7, EGFR NPH; test: Activity for inhibiting EGFR (Table A), EGFR NPH; conditions: read-out: EGFR NPH, potency code (IC50)
[15] = Table B, read-out: HER2 WT, potency code (IC50)
[16] = text lists of compounds, read-out: IC50 value for inhibiting wild-type HER2

T1 sequence (P04626 23-1255 S310F): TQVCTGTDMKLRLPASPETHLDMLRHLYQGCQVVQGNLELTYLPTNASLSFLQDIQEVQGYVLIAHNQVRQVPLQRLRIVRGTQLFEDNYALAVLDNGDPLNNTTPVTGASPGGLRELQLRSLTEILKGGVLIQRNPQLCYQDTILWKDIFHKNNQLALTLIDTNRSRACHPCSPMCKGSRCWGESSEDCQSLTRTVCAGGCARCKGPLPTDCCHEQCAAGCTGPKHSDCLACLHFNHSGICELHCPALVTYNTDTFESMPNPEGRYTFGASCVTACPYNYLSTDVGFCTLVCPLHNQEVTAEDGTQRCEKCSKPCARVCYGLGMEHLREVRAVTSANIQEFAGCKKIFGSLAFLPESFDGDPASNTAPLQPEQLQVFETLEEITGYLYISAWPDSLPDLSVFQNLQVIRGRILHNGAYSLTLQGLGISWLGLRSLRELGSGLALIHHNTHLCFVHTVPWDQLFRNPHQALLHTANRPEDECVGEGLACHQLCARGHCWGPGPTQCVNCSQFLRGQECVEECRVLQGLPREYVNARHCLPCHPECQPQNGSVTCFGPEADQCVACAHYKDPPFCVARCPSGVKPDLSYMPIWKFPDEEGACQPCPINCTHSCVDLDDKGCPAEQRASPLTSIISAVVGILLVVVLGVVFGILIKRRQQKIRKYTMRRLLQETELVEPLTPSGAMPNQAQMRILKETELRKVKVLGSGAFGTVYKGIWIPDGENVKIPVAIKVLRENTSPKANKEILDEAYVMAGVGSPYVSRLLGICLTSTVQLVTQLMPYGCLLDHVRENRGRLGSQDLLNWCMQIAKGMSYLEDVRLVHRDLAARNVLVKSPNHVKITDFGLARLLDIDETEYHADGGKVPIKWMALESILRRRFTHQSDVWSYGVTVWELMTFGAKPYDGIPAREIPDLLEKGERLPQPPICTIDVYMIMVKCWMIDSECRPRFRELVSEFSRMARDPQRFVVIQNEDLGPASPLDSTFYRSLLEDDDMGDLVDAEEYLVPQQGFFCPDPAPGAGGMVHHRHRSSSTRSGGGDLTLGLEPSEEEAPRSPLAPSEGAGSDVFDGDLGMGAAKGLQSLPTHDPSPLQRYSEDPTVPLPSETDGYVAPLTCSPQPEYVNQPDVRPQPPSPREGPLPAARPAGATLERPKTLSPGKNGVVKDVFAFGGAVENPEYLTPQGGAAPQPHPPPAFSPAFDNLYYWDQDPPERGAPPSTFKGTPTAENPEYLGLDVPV
T2 sequence (P04626 with tags, fused parts or gaps INS775YVMA): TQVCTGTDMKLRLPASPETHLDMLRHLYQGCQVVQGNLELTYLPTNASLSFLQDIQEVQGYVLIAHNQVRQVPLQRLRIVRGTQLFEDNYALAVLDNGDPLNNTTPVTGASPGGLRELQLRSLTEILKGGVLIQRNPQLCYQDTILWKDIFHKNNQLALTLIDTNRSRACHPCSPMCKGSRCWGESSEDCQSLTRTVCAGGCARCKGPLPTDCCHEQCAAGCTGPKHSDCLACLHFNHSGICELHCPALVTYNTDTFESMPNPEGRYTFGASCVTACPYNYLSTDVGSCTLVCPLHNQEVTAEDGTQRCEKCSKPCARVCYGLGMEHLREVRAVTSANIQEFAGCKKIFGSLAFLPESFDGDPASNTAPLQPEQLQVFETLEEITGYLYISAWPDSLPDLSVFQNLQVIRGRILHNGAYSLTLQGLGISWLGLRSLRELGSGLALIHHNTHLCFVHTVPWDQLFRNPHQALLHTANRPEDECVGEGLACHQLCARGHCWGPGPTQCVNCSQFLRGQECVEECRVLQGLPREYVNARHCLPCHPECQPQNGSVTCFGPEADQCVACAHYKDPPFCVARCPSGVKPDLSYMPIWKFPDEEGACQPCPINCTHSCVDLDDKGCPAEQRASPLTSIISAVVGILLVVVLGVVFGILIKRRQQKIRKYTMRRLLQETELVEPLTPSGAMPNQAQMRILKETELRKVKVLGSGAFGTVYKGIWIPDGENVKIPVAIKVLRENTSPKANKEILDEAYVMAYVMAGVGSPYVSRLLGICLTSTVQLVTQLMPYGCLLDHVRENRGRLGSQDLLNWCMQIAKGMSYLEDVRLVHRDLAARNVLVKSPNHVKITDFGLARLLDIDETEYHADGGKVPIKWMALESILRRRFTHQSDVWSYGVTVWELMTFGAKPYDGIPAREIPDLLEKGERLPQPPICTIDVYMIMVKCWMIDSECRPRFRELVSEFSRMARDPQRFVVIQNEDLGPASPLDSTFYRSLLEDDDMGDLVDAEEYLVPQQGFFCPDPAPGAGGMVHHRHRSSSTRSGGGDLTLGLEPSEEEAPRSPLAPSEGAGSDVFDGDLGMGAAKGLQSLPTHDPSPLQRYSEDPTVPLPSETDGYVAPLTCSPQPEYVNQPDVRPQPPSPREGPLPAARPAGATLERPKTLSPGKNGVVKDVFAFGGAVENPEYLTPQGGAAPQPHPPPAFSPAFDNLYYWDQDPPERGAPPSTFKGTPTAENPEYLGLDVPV
T6 sequence (P00533 25-1210 N540K): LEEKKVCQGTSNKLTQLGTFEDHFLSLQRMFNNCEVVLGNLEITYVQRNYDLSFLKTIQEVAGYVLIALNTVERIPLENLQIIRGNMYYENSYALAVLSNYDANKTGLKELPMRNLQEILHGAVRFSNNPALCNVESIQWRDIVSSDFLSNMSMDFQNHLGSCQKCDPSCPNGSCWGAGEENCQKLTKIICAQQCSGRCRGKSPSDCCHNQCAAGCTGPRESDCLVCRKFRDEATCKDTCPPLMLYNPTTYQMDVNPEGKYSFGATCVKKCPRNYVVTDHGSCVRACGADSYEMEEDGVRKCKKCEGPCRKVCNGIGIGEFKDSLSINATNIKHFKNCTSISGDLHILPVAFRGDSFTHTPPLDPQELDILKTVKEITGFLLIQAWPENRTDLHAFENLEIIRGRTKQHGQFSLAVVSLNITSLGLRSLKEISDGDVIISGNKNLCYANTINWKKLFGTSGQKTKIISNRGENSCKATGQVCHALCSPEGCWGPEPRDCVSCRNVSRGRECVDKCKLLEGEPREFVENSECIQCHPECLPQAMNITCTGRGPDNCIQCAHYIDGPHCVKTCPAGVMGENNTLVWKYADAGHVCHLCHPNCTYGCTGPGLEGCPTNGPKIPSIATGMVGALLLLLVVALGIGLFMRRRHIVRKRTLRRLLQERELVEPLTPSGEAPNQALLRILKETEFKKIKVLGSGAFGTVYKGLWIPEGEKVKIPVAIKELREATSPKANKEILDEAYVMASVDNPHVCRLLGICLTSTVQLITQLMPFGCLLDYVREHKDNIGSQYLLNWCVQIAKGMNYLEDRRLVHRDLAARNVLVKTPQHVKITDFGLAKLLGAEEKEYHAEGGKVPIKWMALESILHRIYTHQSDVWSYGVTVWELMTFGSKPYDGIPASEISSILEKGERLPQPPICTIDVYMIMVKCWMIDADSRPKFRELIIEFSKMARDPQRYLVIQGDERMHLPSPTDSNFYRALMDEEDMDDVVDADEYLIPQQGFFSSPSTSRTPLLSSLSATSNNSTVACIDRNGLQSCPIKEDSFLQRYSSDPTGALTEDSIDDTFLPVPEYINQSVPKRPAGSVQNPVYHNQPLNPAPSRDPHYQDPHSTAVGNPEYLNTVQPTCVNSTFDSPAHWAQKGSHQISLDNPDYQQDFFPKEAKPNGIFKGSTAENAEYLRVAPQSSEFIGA
T3 sequence (P00533 with tags, fused parts or gaps DELINS30-297G): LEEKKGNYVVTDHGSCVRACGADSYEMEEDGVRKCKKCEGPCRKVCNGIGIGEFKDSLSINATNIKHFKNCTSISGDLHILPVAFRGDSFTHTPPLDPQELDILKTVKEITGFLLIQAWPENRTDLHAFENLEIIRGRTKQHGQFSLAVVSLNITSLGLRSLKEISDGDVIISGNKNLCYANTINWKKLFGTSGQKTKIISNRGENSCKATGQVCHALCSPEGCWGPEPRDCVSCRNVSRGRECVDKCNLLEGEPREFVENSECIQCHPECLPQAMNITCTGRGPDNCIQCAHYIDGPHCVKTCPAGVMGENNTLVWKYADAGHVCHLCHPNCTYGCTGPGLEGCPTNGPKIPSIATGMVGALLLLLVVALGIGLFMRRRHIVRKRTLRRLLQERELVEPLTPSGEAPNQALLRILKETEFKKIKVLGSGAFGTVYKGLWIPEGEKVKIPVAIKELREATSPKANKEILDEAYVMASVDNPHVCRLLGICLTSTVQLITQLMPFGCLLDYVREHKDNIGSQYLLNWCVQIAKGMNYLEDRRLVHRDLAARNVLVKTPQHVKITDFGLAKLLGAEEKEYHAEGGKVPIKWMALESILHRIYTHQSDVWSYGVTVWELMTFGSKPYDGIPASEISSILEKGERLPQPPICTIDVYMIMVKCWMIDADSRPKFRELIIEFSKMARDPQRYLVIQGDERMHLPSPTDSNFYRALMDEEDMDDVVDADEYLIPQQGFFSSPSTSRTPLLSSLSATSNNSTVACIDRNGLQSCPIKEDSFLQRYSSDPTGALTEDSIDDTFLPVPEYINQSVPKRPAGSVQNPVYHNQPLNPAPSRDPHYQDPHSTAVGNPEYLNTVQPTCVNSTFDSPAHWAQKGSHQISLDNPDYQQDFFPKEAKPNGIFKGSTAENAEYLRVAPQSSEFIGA

SMILES | IC50 (HER2 S310F [1]) | IC50 (HER2 YVMA [2]) | IC50 (EGFR V3 [3]) | IC50 (HER2 S310F [4]) | IC50 (HER2 WT [5]; [15]) | IC50 (HER2 WT [5]; [16]) | IC50 (EGFR SVD [6]) | IC50 (EGFR WT [7]) | IC50 (EGFR SVD [8]) | IC50 (HER2 WT [9]) | IC50 (EGFR NPH [10]) | IC50 (HER2 YVMA [11]) | IC50 (EGFR V3 [12]) | IC50 (EGFR WT [13]) | IC50 (EGFR NPH [14])
C=CC(=O)Nc1cc2c(Nc3ccc(OCc4ccccn4)c(Cl)c3)ncnc2cc1OCCCN1CCCC1 [compound 22] | 5 to 10 nM | 30 to 50 nM | 20 to 30 nM | 5 to 10 nM | < 5 nM | ≤ 5 nM | 10 to 20 nM | 50 to 100 nM | 10 to 20 nM | < 5 nM | 20 to 30 nM | 30 to 50 nM | 20 to 30 nM | 50 to 100 nM | 20 to 30 nM
C=CC(=O)Nc1cc2c(Nc3ccc(OCc4ccccn4)c(Cl)c3)ncnc2cc1OC1CN(C)C1 [compound 25] | 10 to 20 nM | 50 to 100 nM | 200 to 300 nM | 10 to 20 nM | 10 to 20 nM | ≤ 20 nM | 30 to 50 nM | 500 to 1000 nM | 30 to 50 nM | 10 to 20 nM | 20 to 30 nM | 50 to 100 nM | 200 to 300 nM | 500 to 1000 nM | 20 to 30 nM
C=CC(=O)Nc1cc2c(Nc3ccc(OCc4ccccn4)c(Cl)c3)ncnc2cc1OCCN1CCCC1 [compound 28] | 10 to 20 nM | 30 to 50 nM | 10 to 20 nM | 10 to 20 nM | 5 to 10 nM | ≤ 10 nM | 30 to 50 nM | 200 to 300 nM | 30 to 50 nM | 5 to 10 nM | 50 to 100 nM | 30 to 50 nM | 10 to 20 nM | 200 to 300 nM | 50 to 100 nM
C=CC(=O)Nc1cc2c(Nc3ccc(OCc4ccccn4)c(Cl)c3)ncnc2cc1OCCN1C2CCC1COC2 [compound 31] | 30 to 50 nM | 100 to 200 nM | 30 to 50 nM | 30 to 50 nM | 5 to 10 nM | ≤ 10 nM | 50 to 100 nM | 500 to 1000 nM | 50 to 100 nM | 5 to 10 nM | 50 to 100 nM | 100 to 200 nM | 30 to 50 nM | 500 to 1000 nM | 50 to 100 nM
C=CC(=O)Nc1cc2c(Nc3ccc(OCc4ccccn4)c(Cl)c3)ncnc2cc1OCCN1CCC1 [compound 33] | 10 to 20 nM | 100 to 200 nM | 20 to 30 nM | 10 to 20 nM | 5 to 10 nM | ≤ 10 nM | 50 to 100 nM | 300 to 500 nM | 50 to 100 nM | 5 to 10 nM | 50 to 100 nM | 100 to 200 nM | 20 to 30 nM | 300 to 500 nM | 50 to 100 nM
C=CC(=O)Nc1cc2c(Nc3ccc(OCc4ccccn4)c(Cl)c3)ncnc2cc1OCCN1CC(OC)C1 [compound 35] | 10 to 20 nM | 30 to 50 nM | 20 to 30 nM | 10 to 20 nM | < 5 nM | ≤ 5 nM | 20 to 30 nM | 300 to 500 nM | 20 to 30 nM | < 5 nM | 50 to 100 nM | 30 to 50 nM | 20 to 30 nM | 300 to 500 nM | 50 to 100 nM
C=CC(=O)Nc1cc2c(Nc3ccc(OCc4ccccn4)c(Cl)c3)ncnc2cc1OCCN1CC2CCC(C1)O2 [compound 36] | 20 to 30 nM | 30 to 50 nM | 30 to 50 nM | 20 to 30 nM | 10 to 20 nM | ≤ 20 nM | 50 to 100 nM | > 1000 nM | 50 to 100 nM | 10 to 20 nM | 50 to 100 nM | 30 to 50 nM | 30 to 50 nM | > 1000 nM | 50 to 100 nM
C=CC(=O)Nc1cc2c(Nc3ccc(OCc4ccccn4)c(Cl)c3)ncnc2cc1OCCN1CC2CC1CO2 (stereo not drawn) [compound 39] | 10 to 20 nM | 50 to 100 nM | 20 to 30 nM | 10 to 20 nM | 5 to 10 nM | ≤ 10 nM | 30 to 50 nM | 500 to 1000 nM | 30 to 50 nM | 5 to 10 nM | 50 to 100 nM | 50 to 100 nM | 20 to 30 nM | 500 to 1000 nM | 50 to 100 nM
C=CC(=O)Nc1cc2c(Nc3ccc(OCc4ccccn4)c(Cl)c3)ncnc2cc1OCCN1CCN(C)CC1 [compound 40] | 10 to 20 nM | 20 to 30 nM | 10 to 20 nM | 10 to 20 nM | < 5 nM | ≤ 10 nM | 10 to 20 nM | 200 to 300 nM | 10 to 20 nM | < 5 nM | 10 to 20 nM | 20 to 30 nM | 10 to 20 nM | 200 to 300 nM | 10 to 20 nM
